Test [1] deals with OVA-specific OT-2 T cells. The test is described as follows: In vivo suppression assay, OT-2 T cell responses to OVA immunization. The following applies: oral 1MT with pDNA/PEI, OVA-immunized B6 mice. The method, then: CFSE-labeled OVA-specific T cells from OT-1 or OT-2 donor mice were injected (i/v) into recipient B6 mice at least 1 day before immunization. CFSE labeling was performed by incubating MACS-enriched splenic CD8+ (OT-1) or CD4+ (OT-2) T cells at ˜10×10^6 cells/ml in PBS with 2 μM CFSE at 37° C. for 15 mins Cells were washed in PBS and injected into recipients (i/v). Mice were then immunized with […] erythrocyte-free spleen cells from Act-mOVA transgenic mice (s/c), and treated with pDNA/PEI nanoparticles and oral 1MT as indicated in FIG. 3.
Cells were stained with the following antibodies; anti-CD4 (clone RM4-5), anti-Thy1.1 (clone OX-7), anti-NK1.1 (clone PK136), anti-CD49b (clone DX5), anti-IFNγ (clone XMG1.2) from Pharmingen-BD-Biosciences (San Jose, Calif.), and analyzed using a LSR2 flow cytometer (Becton-Dickinson). CFSE was purchased from Invitrogen. For detecting intracellular IFNγ, cells were surface stained with anti-NK1.1 and anti-DX5, fixed with cytofix/cytoperm, washed with Perm/Wash solution (BD Bioscience) and stained with anti-IFNγ. Some cells were incubated in RPMI with 1 μM of brefeldin (BD Bioscience) for 3 hrs. with no further stimulations to accumulate cytokine before staining. For detecting IFNγ in OT-2 T cells, dLN cells were stimulated with PMA/ionomycin for 2 hrs. with brefeldin. […]

For a further test, the system named is OT-1 T cells. The test can be described thus: DC suppression assay (splenic DCs from treated mice with OT-1 T cells). Particulars: DCs from pDNA/PEI-treated B6 mice, 1MT 100 μM. In kind it is in vivo. How it is done:
MACS-enriched splenic DCs (CD11c+) and Tregs (CD4+CD25+) were isolated according to manufacturer's instructions, except that cells were incubated with beads at RT (Magnetic Cell Separation Technology (MACS)—Miltenyi Biotec Inc., Auburn, Calif.). T cell stimulatory activity of DCs was assessed by culturing graded numbers of DCs (X-Y) with responder (MACS-enriched) CD8+ T cells from OT-1 (+SIINFEKL peptide) (SEQ ID NO:1) TCR-Tg mice+/−1MT as described (11). Suppressor activity of splenic Tregs was assessed by culturing graded numbers of Tregs with responder A1 (H-Y-specific) T cells, APCs (female CBA) and male (H-Y) peptide; a cocktail of anti-PD-1, anti-PD-L1, and anti-PD-L2 mAbs was added to some cultures to block PD-1-PD-L interactions as described (Baban, et al., J Immunol, 183:2475-2483 (2009), Sharma, et al., J Clin Invest 117:2570-2582 (2007)).
Assays to detect IDO-dependent T cell regulatory phenotypes in splenic DCs were performed as previously described. Briefly, MACS enriched (CD11c^+) spleen cells were cultured for 72 hours with MACS-enriched CD8α^+ T cells from OT-1 TCR transgenic mice and OVA257-264 peptide (SIINFEKL (SEQ ID NO:1)), 100 nM). Proliferation was assessed by adding 1 μCi methyl-[^3H]-thymidine for the final 6 hours and quantified using a BetaPlate counter (Wallac). […] Proliferation was assessed as described above. […]

The test system of test [2] is B6 mice (mBSA-induced arthritis). The test is described as follows: mBSA-induced arthritis model. In kind it is in vivo. Particulars: local joint inflammation. How it is done:
B6 mice were sensitized with methylated BSA (mBSA, s/c, […] in CFA (day 0). Booster injections of mBSA in IFA were given on days 7 and 14, and arthritis was induced on day 21 by intra-articular injection of mBSA (10 μg in PBS, challenge).
Arthritis severity was evaluated by measuring joint swelling, neutrophil infiltration, and histological analysis as described (Lemos, et al., Proc Natl Acad Sci USA, 106:5954-5959 (2009)). In brief, joint swelling was assessed using a vernier caliper, and was expressed as the increase in diameter (mm) relative to non-inflamed joints in each mouse at experimental starting points. Neutrophils were counted after harvesting cells from articular cavities 24 hours after mBSA challenge. Results were presented as neutrophil numbers per cavity (mean±SEM). Arthritis was analyzed histologically 28 days after initial immunization (experimental endpoints). Knee joints were dissected and fixed in 10% buffered formalin for 3 days. […] Sections were examined by two independent observers and graded blindly using a semi-quantitative score from 0 to 3 (0, no; 1, mild; 2, moderate; 3, severe alterations) for the extent of (a) synovial lining layer hyperplasia and (b) infiltration of leukocytes into synovial membrane/joint space (as measures of joint inflammation); and (c) pannus formation and necrosis/erosion of cartilage (as a measure of joint destruction). […]

A further test has as its system NODf mice. The test can be described thus: Type I diabetes onset in NOD female mice. In kind it is in vivo. The following applies: oral 1MT, no other treatment. The text has this:
IDO slows T1D progression in a subset of NODf mice (FIG. 10 (-▴-)), as IDO inhibitor accelerated disease onset in at least 50% of NOD female mice.

`Cn1cc(C[C@@H](N)C(=O)O)c2ccccc21` [1MT, 1-methyl-[D]-tryptophan]: the “effect of IDO inhibitor on suppressive effects of DNP treatment” value in test [1] is “abrogated”. The “effect of adding 1MT on T cell responses” value with OT-1 T cells was “restored robust T cell responses”. In addition, the “effect of oral 1MT on ameliorative effects of pAT/PEI therapy” value in test [2] is recorded as “reversed”. For the same molecule, the “mice that developed diabetes faster than control” value with NODf mice was 50%; in the test with NODf mice (listed as IDO inhibitor) it was “at least 50%”.

The values are drawn from patent US20140234373A1, “Methods of Promoting Immune Tolerance” (Georgia Regents University, priority 2011, published 2014).
